Reference: PubChem BioAssay (NCI)
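All cell lines were grown in 96-well plates and treated with compound for 48 hours. GI50 = concentration required for 50% inhibition of growth. TGI is the concentration that stops growth completely.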

Columns and labels:
Assay in all cases: NCI tumour cell line growth inhibition, 48 h
M19-MEL melanoma = tested on: M19-MEL melanoma
SNB-78 CNS = tested on: SNB-78 CNS
LXFL 529 NSCLC = tested on: LXFL 529 NSCLC
RXF-631 renal = tested on: RXF-631 renal
DMS 273 small cell lung = tested on: DMS 273 small cell lung
DLD-1 colon = tested on: DLD-1 colon
XF 498 CNS = tested on: XF 498 CNS
P388/ADR leukemia = tested on: P388/ADR leukemia
MDA-N = tested on: MDA-N
P388 leukemia = tested on: P388 leukemia
SN12K1 renal = tested on: SN12K1 renal
BT-549 breast = tested on: BT-549 breast

Row | Structure (SMILES) | TGI (M19-MEL melanoma) [µM] | TGI (SNB-78 CNS) [µM] | TGI (LXFL 529 NSCLC) [µM] | TGI (RXF-631 renal) [µM] | TGI (DMS 273 small cell lung) [µM] | TGI (DLD-1 colon) [µM] | TGI (XF 498 CNS) [µM] | GI50 (M19-MEL melanoma) [µM] | GI50 (SNB-78 CNS) [µM] | GI50 (LXFL 529 NSCLC) [µM] | GI50 (DMS 273 small cell lung) [µM] | GI50 (DLD-1 colon) [µM] | GI50 (XF 498 CNS) [µM] | TGI (P388/ADR leukemia) [µM] | TGI (MDA-N) [µM] | TGI (P388 leukemia) [µM] | TGI (SN12K1 renal) [µM] | GI50 (BT-549 breast) [µM] | TGI (BT-549 breast) [µM]
1 | Cn1c(=O)c(C2c3ccccc3Oc3c2c(=O)n(C)c2ccccc32)c(O)c2ccccc21 (stereo not drawn) | > 100 | > 100 | > 100 | > 100 | > 100 | > 100 | 75.9 | – | – | – | – | – | – | – | – | – | – | – | –
2 | Nc1ccc(Cl)cc1.Nc1ccc(Cl)cc1.Nc1ccc(Cl)cc1.O=C([O-])C(=O)[O-].O=C([O-])C(=O)[O-].[H+].[Ru+5] | 2.15 | > 100 | > 100 | > 100 | > 100 | > 100 | > 100 | 0.0537 | > 81.9 | < 0.0272 | 0.087 | > 43.5 | > 87.2 | – | – | – | – | – | –
3 | Nc1ncnc2c1ncn2C1OC(CO)C(O)C1O (stereo not drawn) | > 450 | > 450 | – | – | > 450 | > 450 | > 450 | – | – | – | – | – | – | 144 | > 100 | 111 | > 450 | 7.69 | 59
4 | COC1=C(C(=O)OC(C)(C)C)C23CCCCC2(C(C(=O)OC(C)(C)C)=C(OC)C3C(=O)OC(C)(C)C)C1C(=O)OC(C)(C)C (stereo not drawn) | > 100 | > 100 | > 100 | 35.3 | > 100 | > 100 | > 100 | – | – | – | – | – | – | – | – | – | – | – | –
